The values that follow are results of earlier work, collected in patent US9061052B2, “Aqueous extract of tobacco leaves, its uses in the treatment of dependence” (NFL BIOSCIENCE, priority 2006, dated 2015).

The test system of this series is tobacco dependence. The following applies: in vivo.

Turning to `CC(NC(C)(C)C)C(=O)c1cccc(Cl)c1` (stereo not shown) [Zyban, bupropion], the Adverse effects entry is “dry mouth sensation, insomnia and dizziness”.
